In PubChem BioAssay AID192 (DTP/NCI, 2004):
“And” between values parts separate entries of the source, which are not always exact repeats. Identical values can stand only once. Inconclusive results and toxic doses are left out. Bridge positions count the residues as written; N and C are the ends. Square brackets hold non-standard residues; d marks the D form. Peptide text beside a SMILES is read from it. * marks the point of attachment. ξ: configuration not given here. NMeV = CN[CH](C(=O)O)C(C)C; Cbz = O=C(OCc1ccccc1)*; ξNle = CCCCC(N)C(=O)O; Sar = CNCC(=O)O

Tested on: BDF1 mice, B16 melanoma ip, median survival T/C
Assay: NCI In Vivo Anticancer Drug Screen. Data for tumor model B16 Melanoma (intraperitoneal) in B6D2F1 (BDF1) mice
Conditions: endpoint: median survival time, higher = longer survival
Procedure, shortened: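 Tumor-bearing mice received test compound or vehicle. Survival or tumor size was then measured in both groups. The treated-group figure was divided by the control-group figure.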

[1] = dose: 25.0 mg/kg/injection, schedule: Q01DX009 (ip), vehicle: Klucel (hydroxypropylcellulose) (HPC)
[2] = dose: 50.0 mg/kg/injection, schedule: Q01DX009 (ip), vehicle: Klucel (hydroxypropylcellulose) (HPC)
[3] = dose: 100.0 mg/kg/injection, schedule: Q01DX009 (ip), vehicle: Klucel (hydroxypropylcellulose) (HPC)
[4] = dose: 200.0 mg/kg/injection, schedule: Q01DX009 (ip), vehicle: Klucel (hydroxypropylcellulose) (HPC)
[5] = dose: 400.0 mg/kg/injection, schedule: Q01DX009 (ip), vehicle: Klucel (hydroxypropylcellulose) (HPC)
[6] = dose: 100.0 mg/kg/injection, schedule: Q01DX009 (ip), vehicle: saline with Tween-80
[7] = dose: 200.0 mg/kg/injection, schedule: Q01DX009 (ip), vehicle: saline with Tween-80
[8] = dose: 50.0 mg/kg/injection, schedule: Q01DX009 (ip), vehicle: saline with Tween-80
[9] = dose: 400.0 mg/kg/injection, schedule: Q01DX009 (ip), vehicle: saline with Tween-80
[10] = dose: 100.0 mg/kg/injection, schedule: Q04DX003 (ip), vehicle: Klucel (hydroxypropylcellulose) (HPC)
[11] = dose: 200.0 mg/kg/injection, schedule: Q04DX003 (ip), vehicle: Klucel (hydroxypropylcellulose) (HPC)
[12] = dose: 400.0 mg/kg/injection, schedule: Q04DX003 (ip), vehicle: Klucel (hydroxypropylcellulose) (HPC)
[13] = dose: 50.0 mg/kg/injection, schedule: Q01DX009 (ip), vehicle: saline
[14] = dose: 100.0 mg/kg/injection, schedule: Q01DX009 (ip), vehicle: saline
[15] = dose: 200.0 mg/kg/injection, schedule: Q01DX009 (ip), vehicle: saline

In the case of C/C=C(/C(=O)NC(N)=O)C(C)C, the T/C [1] is reported as 100 % of control, the T/C [2] is reported as 105 % of control and the T/C [3] is reported as 105 % of control. The T/C [4] was 94 % of control and the T/C [5] was 97 % of control.
For O=c1cc(-c2ccccc2)[nH]c(=S)[nH]1, the T/C [6] was 114 % of control and the T/C [7] was 108 % of control.
With OCc1cc(Cl)ccc1O the T/C [2] was 103 % of control, the T/C [3] was 96 % of control and the T/C [4] was 86 % of control.
In the case of CCCCC(NC(=O)OCc1ccccc1)C(=O)NCC(=O)OC (centres undefined) (Cbz-[ξNle]-Gly-OMe), the T/C [8] is reported as 96 % of control, the T/C [6] is reported as 115 % of control and the T/C [7] is reported as 112 % of control. For the same compound, the T/C [9] was 92 % of control.
Cc1ccc(CNc2ccc(Br)cc2)cc1 was tested, and the T/C [3] was 94 % of control and the T/C [4] was 91 % of control.
With N#CC(C#N)=CN1CCCCCC1 the T/C (dose: 3.13 mg/kg/injection, schedule: Q01DX009 (ip), vehicle: saline with Tween-80) was 107 % of control, the T/C (dose: 3.13 mg/kg/injection, schedule: Q04DX003 (ip), vehicle: saline with Tween-80) was 93 % of control and the T/C (dose: 6.25 mg/kg/injection, schedule: Q01DX009 (ip), vehicle: saline with Tween-80) was 102 % of control. The T/C (dose: 6.25 mg/kg/injection, schedule: Q04DX003 (ip), vehicle: saline with Tween-80) was 97 % of control, the T/C (dose: 12.5 mg/kg/injection, schedule: Q01DX009 (ip), vehicle: saline with Tween-80) was 102 % of control and the T/C (dose: 12.5 mg/kg/injection, schedule: Q04DX003 (ip), vehicle: saline with Tween-80) was 100 % of control.
With C1=Cc2ccccc2/C1=C/c1ccc(/C=C2\C=Cc3ccccc32)cc1 the T/C [10] was 98 % of control, the T/C [11] was 102 % of control and the T/C [12] was 92 % of control.
For ClCC1C(CCl)C2(Cl)C(Cl)=C(Cl)C1(Cl)C2(Cl)Cl (centres undefined), the T/C [8] was 92 % of control, the T/C [6] was 93 % of control and the T/C [7] was 92 % of control.
With C=C1OC(=O)OC1(C)CC(OC)OC (centres undefined) the T/C [6] was 102 % of control, the T/C [7] was 113 % of control and the T/C [9] was 108 % of control.
In the case of O=C(Cc1ccccc1)OCCc1ccccc1, the T/C [3] is reported as 103 % of control, the T/C [4] is reported as 100 % of control and the T/C [5] is reported as 93 % of control.
With Oc1cc2c(cc1O)[C@H]1c3ccc(O)c(O)c3OC[C@@]1(O)C2 the T/C (dose: 25.0 mg/kg/injection, schedule: Q01DX009 (ip), vehicle: saline) was 100 % of control, the T/C [13] was 102 % of control and the T/C [14] was 103 % of control. The T/C [15] was 108 % of control and the T/C (dose: 400.0 mg/kg/injection, schedule: Q01DX009 (ip), vehicle: saline) was 103 % of control.
CC(CC1c2ccccc2CCc2ccccc21)CN(C)C (centres undefined) was tested, and the T/C (dose: 1.25 mg/kg/injection, schedule: Q01DX009 (ip), vehicle: saline) was 98 % of control, the T/C (dose: 2.5 mg/kg/injection, schedule: Q01DX009 (ip), vehicle: saline) was 106 % of control and the T/C (dose: 5.0 mg/kg/injection, schedule: Q01DX009 (ip), vehicle: saline) was 94 % of control. The T/C (dose: 6.25 mg/kg/injection, schedule: Q01DX009 (ip), vehicle: saline) was 113 % of control, the T/C (dose: 10.0 mg/kg/injection, schedule: Q01DX009 (ip), vehicle: saline) was 106 % of control and the T/C (dose: 12.5 mg/kg/injection, schedule: Q01DX009 (ip), vehicle: saline) was 119 % of control. The T/C (dose: 20.0 mg/kg/injection, schedule: Q01DX009 (ip), vehicle: saline) was 106 % of control, the T/C (dose: 40.0 mg/kg/injection, schedule: Q01DX009 (ip), vehicle: saline) was 101 % of control and the T/C (dose: 80.0 mg/kg/injection, schedule: Q01DX009 (ip), vehicle: saline) was 92 % of control.
With CC1(CC(C)(C)C2CCCCC2)OCCO1 the T/C (dose: 12.5 mg/kg/injection, schedule: Q01DX009 (ip), vehicle: other) was 100 % of control, the T/C (dose: 25.0 mg/kg/injection, schedule: Q01DX009 (ip), vehicle: other) was 93 % of control and the T/C (dose: 50.0 mg/kg/injection, schedule: Q01DX009 (ip), vehicle: other) was 90 % of control.
In the case of NCC(=O)NC(CCCN=C(N)N)C(=O)O (centres undefined), the T/C [13] is reported as 103 % of control, the T/C [14] is reported as 98 % of control and the T/C [15] is reported as 92 % of control.
With CC(C)C1NC(=O)C(N)C(C)OC(=O)C(C(C)C)N(C)C(=O)CN(C)C(=O)C2CCCN2C1=O (centres undefined) (tested in a mixture with another compound) (H-TVP[Sar][NMeV]; ester 1-C; configuration not given here) the T/C (dose: 0.22 mg/kg/injection, schedule: Q01DX009 (ip), vehicle: water) was 156 % of control, the T/C (dose: 25.0 micrograms/kg/injection, schedule: Q01DX009 (ip), vehicle: saline + alcohol) was 107 % of control and the T/C (dose: 50.0 micrograms/kg/injection, schedule: Q01DX009 (ip), vehicle: saline + alcohol) was 122 % of control. For the same compound, the T/C (dose: 75.0 micrograms/kg/injection, schedule: Q04DX003 (ip), vehicle: saline + alcohol) was 107 % of control and 114 % of control, the T/C (dose: 150.0 micrograms/kg/injection, schedule: Q04DX003 (ip), vehicle: saline + alcohol) was 116 % of control and the T/C (dose: 200.0 micrograms/kg/injection, schedule: Q01DX009 (ip), vehicle: saline + alcohol) was 150 % of control. For the same compound, the T/C (dose: 300.0 micrograms/kg/injection, schedule: Q04DX003 (ip), vehicle: saline + alcohol) was 100 % of control, the T/C (dose: 400.0 micrograms/kg/injection, schedule: Q01DX009 (ip), vehicle: saline + alcohol) was 124 % of control and the T/C (dose: 1200.0 micrograms/kg/injection, schedule: Q04DX003 (ip), vehicle: saline + alcohol) was 93 % of control and 107 % of control.
In the case of CN(CC(=O)NC(Cc1c[nH]c2ccccc12)C(=O)O)C(=O)OCc1ccccc1 (centres undefined), the T/C [8] is reported as 113 % of control, the T/C [6] is reported as 106 % of control and the T/C [7] is reported as 104 % of control. For the same compound, the T/C [9] was 100 % of control.
CCOC(=O)C(=O)c1c(C)[nH]c2ccccc12 was tested, and the T/C [3] was 113 % of control, the T/C [4] was 106 % of control and the T/C [5] was 106 % of control.
In the case of Cc1ccc(NC(=O)Nc2ccccc2C)c(C)c1, the T/C [2] is reported as 115 % of control, the T/C [3] is reported as 115 % of control and the T/C [4] is reported as 118 % of control.
For O=C(CC(=O)CC(O)(C(F)(F)F)C(F)(F)F)CC(O)(C(F)(F)F)C(F)(F)F, the T/C (dose: 0.05 mg/kg/injection, schedule: Q01DX009 (ip), vehicle: saline) was 93 % of control, the T/C (dose: 0.1 mg/kg/injection, schedule: Q01DX009 (ip), vehicle: saline) was 95 % of control and the T/C (dose: 0.2 mg/kg/injection, schedule: Q01DX009 (ip), vehicle: saline) was 95 % of control. For the same compound, the T/C (dose: 0.63 mg/kg/injection, schedule: Q04DX003 (ip), vehicle: saline) was 116 % of control, the T/C (dose: 1.25 mg/kg/injection, schedule: Q04DX003 (ip), vehicle: saline) was 111 % of control and the T/C (dose: 2.5 mg/kg/injection, schedule: Q04DX003 (ip), vehicle: saline) was 105 % of control. For the same compound, the T/C (dose: 125.0 micrograms/kg/injection, schedule: Q01DX009 (ip), vehicle: saline with Tween-80) was 97 % of control.
FC(F)(F)c1ccc2c(c1)N(CCCN1CCN(CCOCCCl)CC1)c1ccccc1S2 was tested, and the T/C (dose: 0.39 mg/kg/injection, schedule: Q01DX009 (ip), vehicle: saline) was 123 % of control, the T/C (dose: 0.78 mg/kg/injection, schedule: Q01DX009 (ip), vehicle: saline) was 115 % of control and the T/C (dose: 1.56 mg/kg/injection, schedule: Q01DX009 (ip), vehicle: saline) was 110 % of control. The T/C (dose: 2.34 mg/kg/injection, schedule: Q04DX003 (ip), vehicle: saline) was 92 % of control and the T/C (dose: 4.68 mg/kg/injection, schedule: Q04DX003 (ip), vehicle: saline) was 86 % of control.
For CN(C)N=C1CCCC1, the T/C (dose: 16.5 mg/kg/injection, schedule: Q04DX003 (ip), vehicle: saline) was 107 % of control, the T/C (dose: 25.0 mg/kg/injection, schedule: Q04DX003 (ip), vehicle: saline) was 115 % of control and the T/C (dose: 37.5 mg/kg/injection, schedule: Q04DX003 (ip), vehicle: saline) was 112 % of control.
With C=C(C)/C([O-])=N/[N+](C)(C)CC(O)CCCCCCCCCCCC (centres undefined) the T/C (dose: 25.0 mg/kg/injection, schedule: Q01DX001 (ip), vehicle: saline) was 91 % of control and the T/C (dose: 50.0 mg/kg/injection, schedule: Q01DX001 (ip), vehicle: saline) was 95 % of control.
In the case of N#C/C(=C\c1ccncc1)c1csc2ccccc12, the T/C [2] is reported as 88 % of control and the T/C [3] is reported as 89 % of control.
Cc1cc(Cl)ccc1NC(=O)c1ccc(Cl)cc1Cl was tested, and the T/C [10] was 100 % of control, the T/C [11] was 97 % of control and the T/C [12] was 97 % of control.
For Cc1c(Cl)cccc1NC(=O)Oc1cc(Cl)c(Cl)cc1Cl, the T/C (dose: 6.25 mg/kg/injection, schedule: Q01DX009 (ip), vehicle: Klucel (hydroxypropylcellulose) (HPC)) was 96 % of control, the T/C (dose: 12.5 mg/kg/injection, schedule: Q01DX009 (ip), vehicle: Klucel (hydroxypropylcellulose) (HPC)) was 98 % of control and the T/C [1] was 89 % of control and 98 % of control.
With Cc1cccc(C)c1NC(=O)c1ccc(Cl)cc1Cl the T/C [3] was 92 % of control.
